From PubChem BioAssay AID2060338 (Molecular Pharmacology Branch, DTP, NCI, 2025)
Where “and” joins values, the source holds several entries; their conditions need not be identical. Equal entries are not always repeated.

System: 556581-035-R-J1-PDC spheroids with HUVEC/MSC, viability
Test: Anticancer human tumor 556581-035-R-J1-PDC patient-derived ovarian carcinoma cell line growth inhibition [IpAb]
Settings: for viability, T/C: stronger effect = lower value
Summary of the method: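 Multi-cell spheroids of 60% tumour cells, 25% HUVEC and 15% MSC in ultra-low-attachment U-bottom wells, treated with agents combined with ipatasertib or abemaciclib. Half-log ranges top out near clinical Cmax, or 10 microM when Cmax is unknown.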

[1] = curve of first compound, second compound 0.01 µM
[2] = curve of first compound, second compound 0.0316 µM
[3] = curve of first compound, second compound 0.1 µM
[4] = curve of first compound, second compound 0.316 µM
[5] = curve of first compound, second compound 1 µM
[6] = second compound 0.01 µM, first compound 0.0316 µM
[7] = second compound 0.01 µM, first compound 0.1 µM
[8] = second compound 0.01 µM, first compound 0.316 µM
[9] = second compound 0.01 µM, first compound 1 µM
[10] = second compound 0.01 µM, first compound 3.16 µM
[11] = second compound 0.01 µM, first compound 10 µM
[12] = second compound 0.0316 µM, first compound 0.0316 µM
[13] = second compound 0.0316 µM, first compound 0.1 µM
[14] = second compound 0.0316 µM, first compound 0.316 µM
[15] = second compound 0.0316 µM, first compound 1 µM
[16] = second compound 0.0316 µM, first compound 3.16 µM
[17] = second compound 0.0316 µM, first compound 10 µM
[18] = second compound 0.1 µM, first compound 0.0316 µM
[19] = second compound 0.1 µM, first compound 0.1 µM
[20] = second compound 0.1 µM, first compound 0.316 µM
[21] = second compound 0.1 µM, first compound 1 µM
[22] = second compound 0.1 µM, first compound 3.16 µM
[23] = second compound 0.1 µM, first compound 10 µM
[24] = second compound 0.316 µM, first compound 0.0316 µM
[25] = second compound 0.316 µM, first compound 0.1 µM
[26] = second compound 0.316 µM, first compound 0.316 µM
[27] = second compound 0.316 µM, first compound 1 µM
[28] = second compound 0.316 µM, first compound 3.16 µM
[29] = second compound 0.316 µM, first compound 10 µM
[30] = second compound 1 µM, first compound 0.0316 µM
[31] = second compound 1 µM, first compound 0.1 µM
[32] = second compound 1 µM, first compound 0.316 µM
[33] = second compound 1 µM, first compound 1 µM
[34] = second compound 1 µM, first compound 3.16 µM
[35] = second compound 1 µM, first compound 10 µM
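Note: spheroids exposed to compounds for 7 days before readout.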

CC1(C)CCC(CN2CCN(c3ccc(C(=O)NS(=O)(=O)c4ccc(NCC5CCOCC5)c([N+](=O)[O-])c4)c(Oc4cnc5[nH]ccc5c4)c3)CC2)=C(c2ccc(Cl)cc2)C1 + CCN1CCN(Cc2ccc(Nc3ncc(F)c(-c4cc(F)c5nc(C)n(C(C)C)c5c4)n3)nc2)CC1
IC50 [1]: 8320 nM
IC50 [2]: 6500 nM
IC50 [3]: 6720 nM
IC50 [4]: 5590 nM
IC50 [5]: 2060 nM
viability, T/C [6]: 92.6%
viability, T/C [7]: 118%
viability, T/C [8]: 112%
viability, T/C [9]: 108%
viability, T/C [10]: 102%
viability, T/C [11]: 40.2%
viability, T/C [12]: 106%
viability, T/C [13]: 111%
viability, T/C [14]: 108%
viability, T/C [15]: 98%
viability, T/C [16]: 95.5%
viability, T/C [17]: 23.7%
viability, T/C [18]: 122%
viability, T/C [19]: 104%
viability, T/C [20]: 107%
viability, T/C [21]: 94.4%
viability, T/C [22]: 91.6%
viability, T/C [23]: 29.9%
viability, T/C [24]: 94%
viability, T/C [25]: 95.6%
viability, T/C [26]: 92.2%
viability, T/C [27]: 94.4%
viability, T/C [28]: 87.6%
viability, T/C [29]: 11.8%
viability, T/C [30]: 67%
viability, T/C [31]: 58.1%
viability, T/C [32]: 68.6%
viability, T/C [33]: 56.8%
viability, T/C [34]: 45.1%
viability, T/C [35]: 6.15%

COc1c(OCCCN2CCOCC2)ccc2c3n(c(=NC(=O)c4cnc(N)nc4)nc12)CCN3 + CCN1CCN(Cc2ccc(Nc3ncc(F)c(-c4cc(F)c5nc(C)n(C(C)C)c5c4)n3)nc2)CC1
IC50 [1]: 14.7 nM
IC50 [2]: 18.8 nM
IC50 [3]: 21.9 nM
IC50 [4]: 21.2 nM
IC50 [5]: 12.4 nM
viability, T/C (second compound 0.01 µM, first compound 0.00316 µM): 76.3%
viability, T/C (second compound 0.01 µM, first compound 0.01 µM): 49.2%
viability, T/C [6]: 39.6%
viability, T/C [7]: 29.9%
viability, T/C [8]: 12.4%
viability, T/C [9]: 3.84%
viability, T/C (second compound 0.0316 µM, first compound 0.00316 µM): 77.2%
viability, T/C (second compound 0.0316 µM, first compound 0.01 µM): 53.8%
viability, T/C [12]: 43.9%
viability, T/C [13]: 32.4%
viability, T/C [14]: 11.2%
viability, T/C [15]: 2.33%
viability, T/C (second compound 0.1 µM, first compound 0.00316 µM): 84%
viability, T/C (second compound 0.1 µM, first compound 0.01 µM): 60.9%
viability, T/C [18]: 40.3%
viability, T/C [19]: 34.4%
viability, T/C [20]: 11.3%
viability, T/C [21]: 2%
viability, T/C (second compound 0.316 µM, first compound 0.00316 µM): 84.9%
viability, T/C (second compound 0.316 µM, first compound 0.01 µM): 63.2%
viability, T/C [24]: 41.2%
viability, T/C [25]: 29.9%
viability, T/C [26]: 7.71%
viability, T/C [27]: 3.06%
viability, T/C (second compound 1 µM, first compound 0.00316 µM): 59.9%
viability, T/C (second compound 1 µM, first compound 0.01 µM): 51.7%
viability, T/C [30]: 40.4%
viability, T/C [31]: 29.8%
viability, T/C [32]: 12%
viability, T/C [33]: 2.02%

CC(=O)c1c(C)c2cnc(Nc3ccc(N4CCNCC4)cn3)nc2n(C2CCCC2)c1=O
viability, T/C (compound 0.000949 µM): 92.6% and 100%
viability, T/C (compound 0.003 µM): 125% and 99.8%
viability, T/C (compound 0.00949 µM): 91.4% and 106%
viability, T/C (compound 0.03 µM): 106% and 104%
viability, T/C (compound 0.0949 µM): 94.1% and 108%
viability, T/C (compound 0.3 µM): 99.7% and 95.6%
IC50 (curve of compound): > 300 nM

CC(C)(C)c1cnc(CSc2cnc(NC(=O)C3CCNCC3)s2)o1
viability, T/C (compound 0.00949 µM): 104% and 105%
viability, T/C (compound 0.03 µM): 116% and 106%
viability, T/C (compound 0.0949 µM): 62.5% and 81%
viability, T/C (compound 0.3 µM): 2.65% and 4.27%
viability, T/C (compound 0.949 µM): 3.19% and 3.08%
viability, T/C (compound 3 µM): 4.63% and 2.13%
IC50 (curve of compound): 121 nM and 151 nM

C=CCn1c(=O)c2cnc(Nc3ccc(N4CCN(C)CC4)cc3)nc2n1-c1cccc(C(C)(C)O)n1 + CC(C)NCC(C(=O)N1CCN(c2ncnc3c2C(C)CC3O)CC1)c1ccc(Cl)cc1
IC50 [3]: 217 nM
IC50 [4]: 186 nM
IC50 [5]: 145 nM
IC50 (curve of first compound, second compound 3.16 µM): 71 nM
IC50 (curve of first compound, second compound 10 µM): < 31.6 nM
viability, T/C [18]: 106%
viability, T/C [19]: 82.7%
viability, T/C [20]: 27.3%
viability, T/C [21]: 31.7%
viability, T/C [22]: 42.9%
viability, T/C [23]: 34.8%
viability, T/C [24]: 94.4%
viability, T/C [25]: 75.8%
viability, T/C [26]: 22.9%
viability, T/C [27]: 26.4%
viability, T/C [28]: 35.1%
viability, T/C [29]: 27.5%
viability, T/C [30]: 64.2%
viability, T/C [31]: 62.7%
viability, T/C [32]: 18.9%
viability, T/C [33]: 22%
viability, T/C [34]: 27.4%
viability, T/C [35]: 26.4%
viability, T/C (second compound 3.16 µM, first compound 0.0316 µM): 60.8%
viability, T/C (second compound 3.16 µM, first compound 0.1 µM): 45.5%
viability, T/C (second compound 3.16 µM, first compound 0.316 µM): 17.2%
viability, T/C (second compound 3.16 µM, first compound 1 µM): 13.2%
viability, T/C (second compound 3.16 µM, first compound 3.16 µM): 23.2%
viability, T/C (second compound 3.16 µM, first compound 10 µM): 22.8%
viability, T/C (second compound 10 µM, first compound 0.0316 µM): 43.3%
viability, T/C (second compound 10 µM, first compound 0.1 µM): 35.9%
viability, T/C (second compound 10 µM, first compound 0.316 µM): 14.8%
viability, T/C (second compound 10 µM, first compound 1 µM): 11.6%
viability, T/C (second compound 10 µM, first compound 3.16 µM): 18.2%
viability, T/C (second compound 10 µM, first compound 10 µM): 19.7%

Cn1cnc2c(F)c(Nc3ccc(Br)cc3Cl)c(C(=O)NOCCO)cc21
viability, T/C (compound 0.00949 µM): 94.9% and 121%
viability, T/C (compound 0.03 µM): 95% and 99.7%
viability, T/C (compound 0.0949 µM): 92.9% and 109%
viability, T/C (compound 0.3 µM): 74.6% and 91.1%
viability, T/C (compound 0.949 µM): 45.2% and 43%
viability, T/C (compound 3 µM): 14.4% and 14%
IC50 (curve of compound): 779 nM and 805 nM

CC(C)NCC(C(=O)N1CCN(c2ncnc3c2C(C)CC3O)CC1)c1ccc(Cl)cc1 (stereo not given)
viability, T/C (compound 3.16 µM): 49% [middle of 13 runs]
viability, T/C (compound 10 µM): 45.5% [middle of 12 runs]

Cn1nccc1Nc1nccc(-c2ccn(C(CO)c3ccc(Cl)c(F)c3)c(=O)c2)n1 (stereo not given) + CCN1CCN(Cc2ccc(Nc3ncc(F)c(-c4cc(F)c5nc(C)n(C(C)C)c5c4)n3)nc2)CC1
IC50 [1]: 9080 nM
IC50 [2]: 6090 nM
IC50 [3]: 5330 nM
IC50 [4]: 7520 nM
IC50 [5]: 5340 nM
viability, T/C [6]: 110%
viability, T/C [7]: 145%
viability, T/C [8]: 127%
viability, T/C [9]: 109%
viability, T/C [10]: 95.4%
viability, T/C [11]: 45.8%
viability, T/C [12]: 119%
viability, T/C [13]: 140%
viability, T/C [14]: 128%
viability, T/C [15]: 98.5%
viability, T/C [16]: 72%
viability, T/C [17]: 34.8%
viability, T/C [18]: 107%
viability, T/C [19]: 123%
viability, T/C [20]: 134%
viability, T/C [21]: 119%
viability, T/C [22]: 63.4%
viability, T/C [23]: 33.8%
viability, T/C [24]: 92.2%
viability, T/C [25]: 103%
viability, T/C [26]: 144%
viability, T/C [27]: 101%
viability, T/C [28]: 87.3%
viability, T/C [29]: 37.9%
viability, T/C [30]: 78%
viability, T/C [31]: 85.5%
viability, T/C [32]: 128%
viability, T/C [33]: 72.3%
viability, T/C [34]: 71.5%
viability, T/C [35]: 27.2%

CCCS(=O)(=O)Nc1ccc(F)c(C(=O)c2c[nH]c3ncc(-c4ccc(Cl)cc4)cc23)c1F
viability, T/C (compound 0.0316 µM): 93.4% and 104%
viability, T/C (compound 0.1 µM): 103% and 99.8%
viability, T/C (compound 0.316 µM): 105% and 108%
viability, T/C (compound 1 µM): 92.9% and 98.8%
viability, T/C (compound 3.16 µM): 110% and 104%
viability, T/C (compound 10 µM): 75.7% and 78.5%
IC50 (curve of compound): > 10000 nM
